Reference: patent US10543223B2, “Mannose derivatives useful for treating pathologies associated with adherent E. coli” (ENTEROME, priority 2015, dated 2020)
Several values for one entry are separate records, joined by “and”; a condition that tells them apart may be missing. Equal entries are not always repeated. Where two headings read alike, the source gives them in different places.

Columns and labels:
[1] = Faeces concentrations and recovery after IV and PO administration to rats; assay type: in vivo, Sprague Dawley rats; details: 0-24 h; for dose excreted: Sprague Dawley, rat, faeces
Experimental: Plasma and faeces concentrations after administration of Compound 1b and for compound 13 of WO 2014/016361 at 1 mg/kg by intravenous route and 10 mg/kg by oral route to Sprague Dawley rats Blank rat faeces are homogenized with 3 volumes of UHQ water until obtention of a paste. Then 100 μL of the homogenate are spiked with the molecules and precipitated with 300 μL of acetonitrile. The concentration ranges tested are: • 0.5 ng/mL to 1000 ng/mL for plasma, • 4 to 2000 ng/g for faeces, corresponding to 1 to 500 ng/mL of faeces homogenate. 3. In-Life Part After administration, the animals are placed in individual metabolic cages in order to collect faeces samples during 24 hours. Faeces samples are collected over the 24 hours of the experiment. They are precisely weighed and 3 volumes of UHQ water are added. The mixture is homogeneized until obtention of a paste. Then 100 μL of the homogenate are taken and extracted with 300 μL of Acetonitrile. Analysis is performed using LC-MS/MS determination according to previous analytical test results.

[2] = Plasma concentrations and pharmacokinetics after IV and PO administration to rats; assay type: in vivo, Sprague Dawley rats; details: for % AUCextra / AUC(0-inf) / AUC(0-t) / Cmax / Tmax: DMSO, based on mean data
Experimental: Plasma and faeces concentrations after administration of Compound 1b and for compound 13 of WO 2014/016361 at 1 mg/kg by intravenous route and 10 mg/kg by oral route to Sprague Dawley rats
At least 8 point calibration standards are run using standard conditions which consist to LC-MS/MS system with C18 column after precipitation of proteins with acetonitrile before the start of the analytical test.
For the plasma, 100 μL of blank rat plasma are directly spiked with the compounds before being precipitate with 300 μL of acetonitrile.
The concentration ranges tested are: • 0.5 ng/mL to 1000 ng/mL for plasma, • 4 to 2000 ng/g for faeces, corresponding to 1 to 500 ng/mL of faeces homogenate. 3. In-Life Part
12 male Sprague Dawley rats around 6-7 week old are used.
At prescribed times, blood is collected. Animals are briefly anaesthetised with Isoflurane® using an anaesthetic system (Équipement Vétérinaire Minerve) during blood samplings.
Blood samples are centrifuged at 2500 rpm at +4° C. (between 0 and 9° C.), the plasma is removed and placed into labelled polypropylene tubes. Individual plasma samples are stored frozen at −20° C. (target temperature) until analysis.
100 μL of the plasma sample are taken and 300 μL of acetonitrile are added. After protein precipitation, analysis is performed using LC-MS/MS determination according to previous analytical test results.
Concentrations of the samples are calculated directly from chromatograms after automatic integration by Analyst® 1.5.1 and expressed as ng/mL.
Mean plasma concentrations are calculated (when calculable, i.e. n≥2) using individual concentration and are expressed with the corresponding standard deviation value and variation coefficient (when calculable, i.e. n≥3), with
[formula] The individual plasma concentrations are tabulated for each rat and scheduled sampling time. Concentrations below the LLOQ are indicated by BLQ. All BLQ concentrations are substituted by zero for calculation of the descriptive statistics of the concentrations. 5. Results Estimation of pharmacokinetics parameters is performed using Kinetica® (Version 4.3—Thermo Electron Corporation—Philadelphia—USA). It was performed by using a one-compartment model approach, which considers the body as a single compartment in which the concentration is homogeneous. The following parameters are estimated: Cmax (ng/mL): maximal plasma concentration Tmax (h): first time to reach Cmax AUCt (ng/mL*h): area under the plasma concentration-time curve from administration up to the last quantifiable concentration at time t
[formula] “BLQ” stands for “Below the Limit of Quantification” ([…] for plasma). Compound 1b

[3] = system: uropathogenic E. coli strain UTI89; test: Hemagglutination inhibition assay, guinea pig erythrocytes, E. coli strain UTI89; assay type: cell-based; details: Escherichia coli, read-out: MIC of haemagglutination
Experimental: (§1) Interaction of E. coli FimH adhesins with the glycocalyx of guinea pig erythrocytes forms a crosslinked network in the wells. Glycoconjugates, added in a 2-fold dilution series, prevent the agglutination reaction. The inhibition titer is defined as the lowest concentration of the glycoconjugate at which hemagglutination is still inhibited. Several strains of E. coli were grown statically overnight in LB at 37° C., washed three times in ice-cold phosphate-buffered saline, and redissolved. A 2-fold dilution of glycoconjugates with a starting concentration of 1 mM was prepared in 25 μL of PBS with 10% of DMSO. Importantly, the pipet tip was changed at every dilution step to avoid carry-over. Next, the bacterial solution (25 μL) was added to the 2-fold dilution series of the compound. Finally, 50 μL of guinea pig red blood cells, washed and diluted in the buffer to 5% of the blood volume, was added to reach 100 μL. The plates were left on ice for one night before read-out.
Inhibition of E. coli Strain UTI89 Isolated from Patient with Urinary Tract Infection.
(§2) The anti-adhesive capacity of the inhibitors was evaluated against ten E. coli strains isolated from CD patients, urinary tract infections, and hip prosthesis infections.

LF82 = test: Hemagglutination inhibition assay, guinea pig erythrocytes, E. coli strain LF82; assay type: cell-based; details: Escherichia coli, read-out: MIC of haemagglutination
Experimental: as §1, §2

[4] = IV 1 mg/kg, individual rats IV1-IV3, 1 mg/kg
[5] = PO 10 mg/kg, individual rats PO4-PO6, 10 mg/kg
[6] = male, Sprague Dawley, rat, plasma, IV 1 mg/kg
[7] = male, Sprague Dawley, rat, plasma, PO 10 mg/kg

## Cc1nc(-c2cnccn2)sc1C(=O)c1cnc(C[C@H]2O[C@H](CO)[C@@H](O)[C@H](O)[C@@H]2O)s1 [Compound 1b, 5-(4-methyl-2-(pyrazin-2-yl)thiazole-5-carbonyl) 2-((-α-D-mannopyranos-1-yl)methyl)thiazole]
[1]; [4]
  Faeces concentration: 3557 ng/g and 6433 ng/g and 2274 ng/g
  Faeces concentration (homogenate): 889 ng/mL and 1608 ng/mL and 569 ng/mL
  Recovery in faeces: 9.2% and 6.8%
  Total amount of compound in faeces: 25318 ng and 22175 ng and 19840 ng
[1]; IV 1 mg/kg, mean of 3 rats
  Faeces concentration (homogenate), mean: 1022 ng/mL
  Faeces concentration, mean: 4088 ng/g
  Total amount of compound in faeces, mean: 22445 ng
[1]; [5]
  Faeces concentration: 146214 ng/g and 115495 ng/g and 146982 ng/g
  Faeces concentration (homogenate): 36553 ng/mL and 28874 ng/mL and 36745 ng/mL
  Recovery in faeces: 41.6% and 45.1%
  Total amount of compound in faeces: 1335427 ng and 1081683 ng and 1171915 ng
[1]; PO 10 mg/kg, mean of 3 rats
  Faeces concentration (homogenate), mean: 34058 ng/mL
  Faeces concentration, mean: 136230 ng/g
  Total amount of compound in faeces, mean: 1196341 ng
[1]; iv, 1 mg/kg, IV 1 mg/kg, individual rats IV1-IV3, read-out: Recovery in faeces
  dose excreted: 10.5%
[1]; iv, 1 mg/kg, IV 1 mg/kg, mean of 3 rats, read-out: Recovery in faeces, mean
  dose excreted: 8.9%
[1]; po, 10 mg/kg, PO 10 mg/kg, individual rats PO4-PO6, read-out: Recovery in faeces
  dose excreted: 55.6%
[1]; po, 10 mg/kg, PO 10 mg/kg, mean of 3 rats, read-out: Recovery in faeces, mean (quantity found in faeces out of the administered quantity)
  dose excreted: 47.4%
[2]; IV 1 mg/kg, 0.083 h, individual rats IV1-IV3, 1 mg/kg
  Plasma concentration: 470.2 ng/mL and 908.7 ng/mL
[2]; IV 1 mg/kg, 0.5 h, individual rats IV1-IV3, 1 mg/kg
  Plasma concentration: 108.2 ng/mL and 66.5 ng/mL
[2]; IV 1 mg/kg, 2 h, individual rats IV1-IV3, 1 mg/kg
  Plasma concentration: BLQ
[2]; IV 1 mg/kg, 6 h, individual rats IV1-IV3
  Plasma concentration: BLQ
[2]; IV 1 mg/kg, 24 h, individual rats IV1-IV3
  Plasma concentration: BLQ
[2]; IV 1 mg/kg
  % AUCextra: 0.35%
[2]; PO 10 mg/kg, 0.5 h, individual rats PO4-PO6, 10 mg/kg
  Plasma concentration: 8.1 ng/mL and 6.5 ng/mL
[2]; PO 10 mg/kg, 1 h, individual rats PO4-PO6, 10 mg/kg
  Plasma concentration: 6.5 ng/mL and BLQ
[2]; PO 10 mg/kg, 2 h, individual rats PO4-PO6, 10 mg/kg
  Plasma concentration: BLQ and 5.2 ng/mL
[2]; PO 10 mg/kg, 6 h, individual rats PO4-PO6
  Plasma concentration: BLQ
[2]; PO 10 mg/kg, 24 h, individual rats PO4-PO6
  Plasma concentration: BLQ
[2]; PO 10 mg/kg
  % AUCextra: 53.8%
[2]; male, Sprague Dawley, rat, plasma, iv, 1 mg/kg, IV 1 mg/kg, 0.083 h, individual rats IV1-IV3, read-out: Plasma concentration
  concentration at 0.083 h: 573 ng/mL
[2]; male, Sprague Dawley, rat, plasma, iv, 1 mg/kg, IV 1 mg/kg, 0.083 h, mean of 3 rats (BLQ = 0), read-out: Plasma concentration, mean
  concentration at 0.083 h: 650 ng/mL
[2]; male, Sprague Dawley, rat, plasma, iv, 1 mg/kg, IV 1 mg/kg, 0.5 h, individual rats IV1-IV3, read-out: Plasma concentration
  concentration at 0.5 h: 59.6 ng/mL
[2]; male, Sprague Dawley, rat, plasma, iv, 1 mg/kg, IV 1 mg/kg, 0.5 h, mean of 3 rats (BLQ = 0), read-out: Plasma concentration, mean
  concentration at 0.5 h: 78.1 ng/mL
[2]; male, Sprague Dawley, rat, plasma, iv, 1 mg/kg, IV 1 mg/kg, 2 h, individual rats IV1-IV3, read-out: Plasma concentration
  concentration at 2 h: 7.7 ng/mL
[2]; male, Sprague Dawley, rat, plasma, iv, 1 mg/kg, IV 1 mg/kg, 2 h, mean of 3 rats (BLQ = 0), read-out: Plasma concentration, mean
  concentration at 2 h: 2.6 ng/mL
[2]; male, Sprague Dawley, rat, plasma, iv, 1 mg/kg, IV 1 mg/kg, 6 h, mean of 3 rats (BLQ = 0), read-out: Plasma concentration, mean
  concentration at 6 h: 0 µg/mL
[2]; male, Sprague Dawley, rat, plasma, iv, 1 mg/kg, IV 1 mg/kg, 24 h, mean of 3 rats (BLQ = 0)
  concentration at 24 h: 0 µg/mL
[2]; male, Sprague Dawley, rat, plasma, po, 10 mg/kg, PO 10 mg/kg, 0.5 h, individual rats PO4-PO6, read-out: Plasma concentration
  concentration at 0.5 h: 6.7 ng/mL
[2]; male, Sprague Dawley, rat, plasma, po, 10 mg/kg, PO 10 mg/kg, 0.5 h, mean of 3 rats (BLQ = 0), read-out: Plasma concentration, mean
  concentration at 0.5 h: 7.1 ng/mL
[2]; male, Sprague Dawley, rat, plasma, po, 10 mg/kg, PO 10 mg/kg, 1 h, individual rats PO4-PO6, read-out: Plasma concentration
  concentration at 1 h: 5.5 ng/mL
[2]; male, Sprague Dawley, rat, plasma, po, 10 mg/kg, PO 10 mg/kg, 1 h, mean of 3 rats (BLQ = 0), read-out: Plasma concentration, mean
  concentration at 1 h: 4 ng/mL
[2]; male, Sprague Dawley, rat, plasma, po, 10 mg/kg, PO 10 mg/kg, 2 h, individual rats PO4-PO6, read-out: Plasma concentration
  concentration at 2 h: 6 ng/mL
[2]; male, Sprague Dawley, rat, plasma, po, 10 mg/kg, PO 10 mg/kg, 2 h, mean of 3 rats (BLQ = 0), read-out: Plasma concentration, mean
  concentration at 2 h: 3.7 ng/mL
[2]; male, Sprague Dawley, rat, plasma, po, 10 mg/kg, PO 10 mg/kg, 6 h, mean of 3 rats (BLQ = 0), read-out: Plasma concentration, mean
  concentration at 6 h: 0 µg/mL
[2]; male, Sprague Dawley, rat, plasma, po, 10 mg/kg, PO 10 mg/kg, 24 h, mean of 3 rats (BLQ = 0)
  concentration at 24 h: 0 µg/mL
[2]; [6]
  AUC(0-inf): 0.267 µg·h/mL
  AUC(0-t): 0.266 µg·h/mL
  Cmax: 651 ng/mL
  Tmax: 4.8 min
[2]; male, Sprague Dawley, rat, plasma, PO 10 mg/kg vs IV 1 mg/kg, calculated based on AUCt, read-out: F (bioavailability)
  bioavailability: 0.3%
[2]; [7]
  AUC(0-t): 0.008 µg·h/mL
  Cmax: 7.07 ng/mL
  Tmax: 30 min
[2]; male, Sprague Dawley, rat, plasma, PO 10 mg/kg, % AUC extra >20%: value given for indication
  AUC(0-inf): 0.0182 µg·h/mL
[3]
  MIC: 6 µM
LF82
  MIC: 0.024 µM
